Experimental data from paper PMC6887723, “Design and Synthesis of 4-(Heterocyclic Substituted Amino)-1H-Pyrazole-3-Carboxamide Derivatives and Their Potent Activity against Acute Myeloid Leukemia (AML)” (International Journal of Molecular Sciences, 2019).

How the values were obtained:
[1] = target: T1, ABL1 (Homo sapiens, UniProt P00519); assay: Hot-Spot kinase profiling; format: biochemical; details: read-out: % Enzyme Activity (Relative to DMSO Controls) ABL1
T1 construct: purchased Reaction Biology Corp. (HotSpot kinase assay)
T1 sequence (P00519 whole entry): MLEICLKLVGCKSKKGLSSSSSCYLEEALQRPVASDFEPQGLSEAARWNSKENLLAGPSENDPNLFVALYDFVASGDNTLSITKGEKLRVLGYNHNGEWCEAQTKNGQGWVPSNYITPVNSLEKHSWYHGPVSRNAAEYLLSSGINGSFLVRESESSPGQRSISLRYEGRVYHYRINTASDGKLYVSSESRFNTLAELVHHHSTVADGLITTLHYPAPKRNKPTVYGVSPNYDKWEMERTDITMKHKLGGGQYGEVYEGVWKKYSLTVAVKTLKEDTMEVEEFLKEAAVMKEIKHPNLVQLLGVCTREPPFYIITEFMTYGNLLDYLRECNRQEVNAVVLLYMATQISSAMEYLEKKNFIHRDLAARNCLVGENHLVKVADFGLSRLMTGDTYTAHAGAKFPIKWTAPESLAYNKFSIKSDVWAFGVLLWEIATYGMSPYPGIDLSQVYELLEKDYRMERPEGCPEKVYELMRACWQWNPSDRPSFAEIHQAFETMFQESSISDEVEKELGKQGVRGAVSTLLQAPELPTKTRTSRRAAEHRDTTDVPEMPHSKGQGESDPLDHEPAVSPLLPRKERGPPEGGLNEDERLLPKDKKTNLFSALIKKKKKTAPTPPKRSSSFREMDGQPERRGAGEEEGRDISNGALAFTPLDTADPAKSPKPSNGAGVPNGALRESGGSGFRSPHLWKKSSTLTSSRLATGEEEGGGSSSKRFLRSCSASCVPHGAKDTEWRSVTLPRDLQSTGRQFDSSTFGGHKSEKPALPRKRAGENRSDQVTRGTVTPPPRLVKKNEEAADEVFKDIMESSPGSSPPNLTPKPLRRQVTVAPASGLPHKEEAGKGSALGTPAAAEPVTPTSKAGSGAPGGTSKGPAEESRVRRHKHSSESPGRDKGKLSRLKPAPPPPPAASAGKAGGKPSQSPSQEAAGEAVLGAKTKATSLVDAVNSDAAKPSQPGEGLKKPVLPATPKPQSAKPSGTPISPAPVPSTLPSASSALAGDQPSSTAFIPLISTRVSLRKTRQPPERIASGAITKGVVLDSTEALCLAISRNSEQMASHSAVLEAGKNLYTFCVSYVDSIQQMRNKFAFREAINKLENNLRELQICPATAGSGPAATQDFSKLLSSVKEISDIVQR
Method: (§1) Activities of kinases were determined using Hot-SpotSM kinase assay which was performed by Reaction Biology Corp. (Malvern PA, USA) as described previously.

[2] = target: T2, Aurora A (Homo sapiens, UniProt O14965); assay: Hot-Spot kinase profiling; format: biochemical; details: read-out: % Enzyme Activity (Relative to DMSO Controls) Aurora A
T2 construct: purchased Reaction Biology Corp. (HotSpot kinase assay)
T2 sequence (O14965 whole entry): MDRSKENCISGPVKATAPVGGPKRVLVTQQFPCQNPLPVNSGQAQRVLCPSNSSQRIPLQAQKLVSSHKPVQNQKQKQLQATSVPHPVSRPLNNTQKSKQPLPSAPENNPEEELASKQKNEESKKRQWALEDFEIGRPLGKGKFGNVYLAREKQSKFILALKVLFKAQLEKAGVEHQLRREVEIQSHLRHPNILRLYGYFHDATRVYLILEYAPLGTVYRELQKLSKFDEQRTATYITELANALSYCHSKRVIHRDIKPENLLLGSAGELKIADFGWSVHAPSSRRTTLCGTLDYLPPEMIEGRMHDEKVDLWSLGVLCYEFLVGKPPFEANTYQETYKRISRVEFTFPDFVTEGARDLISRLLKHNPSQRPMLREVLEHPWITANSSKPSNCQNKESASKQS
Method: as §1

[3] = target: T3, BRAF (Homo sapiens, UniProt P15056); assay: Hot-Spot kinase profiling; format: biochemical; details: read-out: % Enzyme Activity (Relative to DMSO Controls) BRAF
T3 construct: purchased Reaction Biology Corp. (HotSpot kinase assay)
Method: as §1

[4] = target: T4, CDK7/cyclin H (Homo sapiens, UniProt P50613); assay: Hot-Spot kinase profiling; format: biochemical
T4 construct: purchased Reaction Biology Corp
T4 sequence (P50613 whole entry): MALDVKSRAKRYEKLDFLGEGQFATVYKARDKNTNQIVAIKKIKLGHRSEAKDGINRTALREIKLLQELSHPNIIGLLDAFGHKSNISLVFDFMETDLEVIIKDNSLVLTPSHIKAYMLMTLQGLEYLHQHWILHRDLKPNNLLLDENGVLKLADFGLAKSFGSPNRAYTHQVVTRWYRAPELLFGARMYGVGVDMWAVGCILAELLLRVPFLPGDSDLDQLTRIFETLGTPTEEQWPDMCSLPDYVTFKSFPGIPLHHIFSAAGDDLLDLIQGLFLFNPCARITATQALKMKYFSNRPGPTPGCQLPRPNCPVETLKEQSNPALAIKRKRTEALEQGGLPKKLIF
T4 sequence (P51946 whole entry partner): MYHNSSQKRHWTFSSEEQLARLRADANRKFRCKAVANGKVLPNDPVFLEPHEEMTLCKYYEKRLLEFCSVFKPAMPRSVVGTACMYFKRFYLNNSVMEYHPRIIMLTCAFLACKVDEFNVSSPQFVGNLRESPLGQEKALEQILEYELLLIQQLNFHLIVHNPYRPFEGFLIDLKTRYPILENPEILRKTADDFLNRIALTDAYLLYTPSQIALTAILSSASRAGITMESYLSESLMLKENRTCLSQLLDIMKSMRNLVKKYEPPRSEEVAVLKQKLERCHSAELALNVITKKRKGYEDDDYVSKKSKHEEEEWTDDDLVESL
T4 sequence (P51948 whole entry partner): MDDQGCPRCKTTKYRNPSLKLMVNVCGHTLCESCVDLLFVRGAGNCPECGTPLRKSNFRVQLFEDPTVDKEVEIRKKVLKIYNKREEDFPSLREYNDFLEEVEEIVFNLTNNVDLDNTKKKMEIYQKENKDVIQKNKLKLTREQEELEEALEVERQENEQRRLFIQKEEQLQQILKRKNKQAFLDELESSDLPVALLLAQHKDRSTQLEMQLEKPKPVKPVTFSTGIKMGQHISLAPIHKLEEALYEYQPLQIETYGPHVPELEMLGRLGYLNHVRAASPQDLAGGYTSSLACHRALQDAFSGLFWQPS
Method: as §1

[5] = target: T5, CDK9/cyclin K (Homo sapiens, UniProt P50750); assay: Hot-Spot kinase profiling; format: biochemical
T5 construct: purchased Reaction Biology Corp
T5 sequence (P50750 whole entry): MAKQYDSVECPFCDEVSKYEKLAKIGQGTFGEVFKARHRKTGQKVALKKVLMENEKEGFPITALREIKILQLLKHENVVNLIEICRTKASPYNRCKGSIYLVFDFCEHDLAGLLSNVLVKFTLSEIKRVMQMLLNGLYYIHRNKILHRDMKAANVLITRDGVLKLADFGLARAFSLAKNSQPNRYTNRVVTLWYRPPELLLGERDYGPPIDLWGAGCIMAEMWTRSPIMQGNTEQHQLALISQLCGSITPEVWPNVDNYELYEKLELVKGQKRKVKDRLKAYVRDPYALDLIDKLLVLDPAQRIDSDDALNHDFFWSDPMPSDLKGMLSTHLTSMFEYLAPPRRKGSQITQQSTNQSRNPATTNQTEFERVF
T5 sequence (O75909 whole entry partner): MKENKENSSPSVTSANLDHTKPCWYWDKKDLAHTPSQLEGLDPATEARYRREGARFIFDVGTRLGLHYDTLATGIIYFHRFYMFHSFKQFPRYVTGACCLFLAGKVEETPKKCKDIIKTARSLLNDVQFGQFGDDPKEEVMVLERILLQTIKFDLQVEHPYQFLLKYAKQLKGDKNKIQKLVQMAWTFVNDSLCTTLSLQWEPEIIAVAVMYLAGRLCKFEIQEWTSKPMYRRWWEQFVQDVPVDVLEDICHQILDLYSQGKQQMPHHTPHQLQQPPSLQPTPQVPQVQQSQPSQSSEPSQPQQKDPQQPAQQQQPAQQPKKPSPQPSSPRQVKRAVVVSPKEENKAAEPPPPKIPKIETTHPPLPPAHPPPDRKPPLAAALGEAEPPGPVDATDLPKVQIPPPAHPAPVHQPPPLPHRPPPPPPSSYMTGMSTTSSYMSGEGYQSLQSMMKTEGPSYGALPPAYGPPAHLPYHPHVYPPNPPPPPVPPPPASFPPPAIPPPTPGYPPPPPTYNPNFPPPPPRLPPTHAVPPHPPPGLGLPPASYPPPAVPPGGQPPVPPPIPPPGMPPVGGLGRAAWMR
Method: as §1

[6] = target: T6, FLT1/VEGFR1 (Homo sapiens, UniProt P17948); assay: Hot-Spot kinase profiling; format: biochemical
T6 construct: purchased Reaction Biology Corp
T6 sequence (P17948 27-1338): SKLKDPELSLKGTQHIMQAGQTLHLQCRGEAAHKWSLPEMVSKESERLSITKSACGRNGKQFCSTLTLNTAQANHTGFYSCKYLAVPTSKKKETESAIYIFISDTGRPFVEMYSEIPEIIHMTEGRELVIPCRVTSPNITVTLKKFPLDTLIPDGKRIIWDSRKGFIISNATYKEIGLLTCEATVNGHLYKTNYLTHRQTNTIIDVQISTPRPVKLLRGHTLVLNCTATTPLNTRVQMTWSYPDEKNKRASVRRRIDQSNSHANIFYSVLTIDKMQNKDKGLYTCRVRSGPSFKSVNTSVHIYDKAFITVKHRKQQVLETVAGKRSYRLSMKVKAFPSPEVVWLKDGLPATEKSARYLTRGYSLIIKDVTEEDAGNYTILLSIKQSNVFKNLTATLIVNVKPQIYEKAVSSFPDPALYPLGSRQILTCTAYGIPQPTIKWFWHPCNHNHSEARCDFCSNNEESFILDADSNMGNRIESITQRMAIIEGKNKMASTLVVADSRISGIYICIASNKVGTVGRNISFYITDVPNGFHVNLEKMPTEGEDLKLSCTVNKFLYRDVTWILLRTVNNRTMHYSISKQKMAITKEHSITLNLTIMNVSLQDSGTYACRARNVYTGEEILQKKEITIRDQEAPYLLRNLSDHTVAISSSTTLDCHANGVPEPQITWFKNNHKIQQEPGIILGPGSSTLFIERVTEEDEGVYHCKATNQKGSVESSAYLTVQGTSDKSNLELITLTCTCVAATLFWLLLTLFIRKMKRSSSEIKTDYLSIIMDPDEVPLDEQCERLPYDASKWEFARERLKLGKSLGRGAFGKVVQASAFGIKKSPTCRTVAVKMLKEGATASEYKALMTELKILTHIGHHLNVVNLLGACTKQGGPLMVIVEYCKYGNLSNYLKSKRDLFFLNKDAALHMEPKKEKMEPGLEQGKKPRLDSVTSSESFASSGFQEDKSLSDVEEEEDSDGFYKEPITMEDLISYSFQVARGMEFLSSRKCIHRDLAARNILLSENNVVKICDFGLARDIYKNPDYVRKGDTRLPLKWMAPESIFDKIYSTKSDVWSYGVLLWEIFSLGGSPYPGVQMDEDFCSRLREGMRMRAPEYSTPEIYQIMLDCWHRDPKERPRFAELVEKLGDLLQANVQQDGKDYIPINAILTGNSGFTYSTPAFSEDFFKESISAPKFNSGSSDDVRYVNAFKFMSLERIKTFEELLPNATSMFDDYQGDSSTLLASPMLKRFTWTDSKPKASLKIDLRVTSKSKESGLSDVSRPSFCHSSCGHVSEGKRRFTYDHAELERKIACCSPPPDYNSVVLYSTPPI
Method: as §1

[7] = target: T7, FMS (Homo sapiens, UniProt P07333); assay: Hot-Spot kinase profiling; format: biochemical; details: read-out: % Enzyme Activity (Relative to DMSO Controls) FMS
T7 construct: purchased Reaction Biology Corp
Method: as §1

[8] = target: T8, JNK1 (Homo sapiens, UniProt P45983); assay: Hot-Spot kinase profiling; format: biochemical; details: read-out: % Enzyme Activity (Relative to DMSO Controls) JNK1
T8 construct: purchased Reaction Biology Corp. (Malvern PA, USA)
Method: as §1

[9] = test system: 786-0; assay: NCI60 screening; format: cell-based; details: Homo sapiens, Renal Cancer panel
Description: (§2) With these findings, we submitted compound 8t to National Cancer Institute (NCI) to evaluate their antitumor efficacy against 60 human cancer cell lines.

[10] = test system: A498; assay: NCI60 screening; format: cell-based; details: Homo sapiens, Renal Cancer panel
Description: as §2

[11] = test system: A549/ATCC; assay: NCI60 screening; format: cell-based; details: Homo sapiens, Non-Small Cell Lung Cancer panel
Description: as §2

[12] = test system: ACHN; assay: NCI60 screening; format: cell-based; details: Homo sapiens, Renal Cancer panel
Description: as §2

[13] = test system: BT-549; assay: NCI60 screening; format: cell-based; details: Homo sapiens, Breast Cancer panel
Description: as §2

[14] = test system: CCRF-CEM; assay: NCI60 screening; format: cell-based; details: Homo sapiens, Leukemia panel
Description: as §2

[15] = test system: DU-145; assay: NCI60 screening; format: cell-based; details: Homo sapiens, Prostate Cancer panel
Description: as §2

[16] = test system: EKVX; assay: NCI60 screening; format: cell-based; details: Homo sapiens, Non-Small Cell Lung Cancer panel
Description: as §2

[17] = test system: HCC-2998; assay: NCI60 screening; format: cell-based; details: Homo sapiens, Colon Cancer panel
Description: as §2

[18] = test system: HL-60(TB); assay: NCI60 screening; format: cell-based; details: Homo sapiens, Leukemia panel
Description: as §2

[19] = test system: HOP-62; assay: NCI60 screening; format: cell-based; details: Homo sapiens, Non-Small Cell Lung Cancer panel
Description: as §2

[20] = test system: HOP-92; assay: NCI60 screening; format: cell-based; details: Homo sapiens, Non-Small Cell Lung Cancer panel
Description: as §2

[21] = test system: HS 578T; assay: NCI60 screening; format: cell-based; details: Homo sapiens, Breast Cancer panel
Description: as §2

[22] = test system: K-562; assay: NCI60 screening; format: cell-based; details: Homo sapiens, K562; Leukemia panel
Description: as §2

[23] = test system: KM12; assay: NCI60 screening; format: cell-based; details: Homo sapiens, Colon Cancer panel
Description: as §2

[24] = test system: LOX IMVI; assay: NCI60 screening; format: cell-based; details: Homo sapiens, Melanoma panel
Description: as §2

[25] = test system: M14; assay: NCI60 screening; format: cell-based; details: Homo sapiens, Melanoma panel
Description: as §2

[26] = test system: MCF7; assay: NCI60 screening; format: cell-based; details: Homo sapiens, Breast Cancer panel
Description: as §2

[27] = test system: MDA-MB-231; assay: NCI60 screening; format: cell-based; details: Homo sapiens, Breast Cancer panel
Description: as §2

[28] = test system: MDA-MB-468; assay: NCI60 screening; format: cell-based; details: Homo sapiens, Breast Cancer panel
Description: as §2

[29] = test system: MOLT-4; assay: NCI60 screening; format: cell-based; details: Homo sapiens, Leukemia panel
Description: as §2

[30] = test system: NCI-H23; assay: NCI60 screening; format: cell-based; details: Homo sapiens, Non-Small Cell Lung Cancer panel
Description: as §2

[31] = test system: NCI-H460; assay: NCI60 screening; format: cell-based; details: Homo sapiens, Non-Small Cell Lung Cancer panel
Description: as §2

[32] = test system: NCI/ADR-RES; assay: NCI60 screening; format: cell-based; details: Homo sapiens, Ovarian Cancer panel
Description: as §2

[33] = test system: OVCAR-4; assay: NCI60 screening; format: cell-based; details: Homo sapiens, Ovarian Cancer panel
Description: as §2

[34] = test system: OVCAR-5; assay: NCI60 screening; format: cell-based; details: Homo sapiens, Ovarian Cancer panel
Description: as §2

[35] = test system: OVCAR-8; assay: NCI60 screening; format: cell-based; details: Homo sapiens, Ovarian Cancer panel
Description: as §2

[36] = test system: RXF 393; assay: NCI60 screening; format: cell-based; details: Homo sapiens, Renal Cancer panel
Description: as §2

[37] = test system: SF-268; assay: NCI60 screening; format: cell-based; details: Homo sapiens, CNS Cancer panel
Description: as §2

[38] = test system: SF-295; assay: NCI60 screening; format: cell-based; details: Homo sapiens, CNS Cancer panel
Description: as §2

[39] = test system: SF-539; assay: NCI60 screening; format: cell-based; details: Homo sapiens, CNS Cancer panel
Description: as §2

[40] = test system: SK-MEL-2; assay: NCI60 screening; format: cell-based; details: Homo sapiens, Melanoma panel
Description: as §2

[41] = test system: SK-OV-3; assay: NCI60 screening; format: cell-based; details: Homo sapiens, Ovarian Cancer panel
Description: as §2

[42] = test system: SNB-19; assay: NCI60 screening; format: cell-based; details: Homo sapiens, CNS Cancer panel
Description: as §2

[43] = test system: SNB-75; assay: NCI60 screening; format: cell-based; details: Homo sapiens, CNS Cancer panel
Description: as §2

[44] = test system: SR; assay: NCI60 screening; format: cell-based; details: Homo sapiens, Leukemia panel
Description: as §2

[45] = test system: SW-620; assay: NCI60 screening; format: cell-based; details: Homo sapiens, Colon Cancer panel
Description: as §2

[46] = test system: UACC-257; assay: NCI60 screening; format: cell-based; details: Homo sapiens, Melanoma panel
Description: as §2

remaining activity at 0.15 µM [1]: 81% | remaining activity at 0.15 µM [2]: 38% | remaining activity at 0.15 µM [3]: 77.6% | remaining activity at 0.15 µM ([4]; 0.15 μM, read-out: % Enzyme Activity (Relative to DMSO Controls) CDK7/cyclin H): 19.9% | IC50 ([4]; Table 5 kinase profiling): 21.3 ± 1.01 nM | remaining activity at 0.15 µM ([5]; 0.15 μM, read-out: % Enzyme Activity (Relative to DMSO Controls) CDK9/cyclin K): 7.2% | IC50 ([5]; Table 5 kinase profiling): 14.2 ± 0.82 nM | remaining activity at 0.15 µM ([6]; 0.15 μM, read-out: % Enzyme Activity (Relative to DMSO Controls) FLT1/VEGFR1): 6.08% | IC50 ([6]; Table 5 kinase profiling): 12.4 ± 0.19 nM | remaining activity at 0.15 µM [7]: 63% | remaining activity at 0.15 µM [8]: 39.2%
Structure (SMILES): O=C(Nc1ccc(N2CCNCC2)cc1)c1n[nH]cc1Nc1ncnc2sc3c(c12)CCC3 [Compound 8t]
GI50 [9]: 360 nM | GI50 [10]: 140 nM | GI50 [11]: 140 nM | GI50 [12]: 160 nM | GI50 [13]: 1020 nM | GI50 [14]: 220 nM | GI50 [15]: 300 nM | GI50 [16]: 60 nM | GI50 [17]: 1200 nM | GI50 [18]: 1150 nM | GI50 [19]: 370 nM | GI50 [20]: 40 nM | GI50 [21]: 100 nM | GI50 [22]: 120 nM | GI50 [23]: 170 nM | GI50 [24]: 200 nM | GI50 [25]: 120 nM | GI50 [26]: 160 nM | GI50 [27]: 1930 nM | GI50 [28]: 420 nM | GI50 [29]: 80 nM | GI50 [30]: 260 nM | GI50 [31]: 60 nM | GI50 [32]: 1480 nM | GI50 [33]: 220 nM | GI50 [34]: 270 nM | GI50 [35]: 360 nM | GI50 [36]: 390 nM | GI50 [37]: 720 nM | GI50 [38]: 270 nM | GI50 [39]: 390 nM | GI50 [40]: 1160 nM | GI50 [41]: 260 nM | GI50 [42]: 240 nM | GI50 [43]: 50 nM | GI50 [44]: 60 nM | GI50 [45]: 120 nM | GI50 [46]: 480 nM
